# Columns and labels:
# c-Src = target: T1, c-Src (Homo sapiens, UniProt P12931); assay: Z`-LYTE kinase profiling, c-Src; type: biochemical
# T1 construct: purchased Invitrogen/Life Technologies
# [1] = system: HeLa cervical cancer cell line; assay: MTT antiproliferative assay, HeLa; type: cell-based; conditions: 10 µM, 24 h
# Procedure: (§1) At least, three independent experiments were performed.
# EGFR = EGFR (Homo sapiens, UniProt P00533); assay: Z`-LYTE kinase inhibitory assay, EGFR; conditions: for fold decreased activity than Gefitinib, EGFR: from IC50 values
# IGF-1R = target: T2, IGF-1R (Homo sapiens, UniProt P08069); assay: Z`-LYTE kinase profiling, IGF-1R; type: biochemical
# T2 construct: purchased Invitrogen/Life Technologies
# T2 sequence (P08069 31-1367): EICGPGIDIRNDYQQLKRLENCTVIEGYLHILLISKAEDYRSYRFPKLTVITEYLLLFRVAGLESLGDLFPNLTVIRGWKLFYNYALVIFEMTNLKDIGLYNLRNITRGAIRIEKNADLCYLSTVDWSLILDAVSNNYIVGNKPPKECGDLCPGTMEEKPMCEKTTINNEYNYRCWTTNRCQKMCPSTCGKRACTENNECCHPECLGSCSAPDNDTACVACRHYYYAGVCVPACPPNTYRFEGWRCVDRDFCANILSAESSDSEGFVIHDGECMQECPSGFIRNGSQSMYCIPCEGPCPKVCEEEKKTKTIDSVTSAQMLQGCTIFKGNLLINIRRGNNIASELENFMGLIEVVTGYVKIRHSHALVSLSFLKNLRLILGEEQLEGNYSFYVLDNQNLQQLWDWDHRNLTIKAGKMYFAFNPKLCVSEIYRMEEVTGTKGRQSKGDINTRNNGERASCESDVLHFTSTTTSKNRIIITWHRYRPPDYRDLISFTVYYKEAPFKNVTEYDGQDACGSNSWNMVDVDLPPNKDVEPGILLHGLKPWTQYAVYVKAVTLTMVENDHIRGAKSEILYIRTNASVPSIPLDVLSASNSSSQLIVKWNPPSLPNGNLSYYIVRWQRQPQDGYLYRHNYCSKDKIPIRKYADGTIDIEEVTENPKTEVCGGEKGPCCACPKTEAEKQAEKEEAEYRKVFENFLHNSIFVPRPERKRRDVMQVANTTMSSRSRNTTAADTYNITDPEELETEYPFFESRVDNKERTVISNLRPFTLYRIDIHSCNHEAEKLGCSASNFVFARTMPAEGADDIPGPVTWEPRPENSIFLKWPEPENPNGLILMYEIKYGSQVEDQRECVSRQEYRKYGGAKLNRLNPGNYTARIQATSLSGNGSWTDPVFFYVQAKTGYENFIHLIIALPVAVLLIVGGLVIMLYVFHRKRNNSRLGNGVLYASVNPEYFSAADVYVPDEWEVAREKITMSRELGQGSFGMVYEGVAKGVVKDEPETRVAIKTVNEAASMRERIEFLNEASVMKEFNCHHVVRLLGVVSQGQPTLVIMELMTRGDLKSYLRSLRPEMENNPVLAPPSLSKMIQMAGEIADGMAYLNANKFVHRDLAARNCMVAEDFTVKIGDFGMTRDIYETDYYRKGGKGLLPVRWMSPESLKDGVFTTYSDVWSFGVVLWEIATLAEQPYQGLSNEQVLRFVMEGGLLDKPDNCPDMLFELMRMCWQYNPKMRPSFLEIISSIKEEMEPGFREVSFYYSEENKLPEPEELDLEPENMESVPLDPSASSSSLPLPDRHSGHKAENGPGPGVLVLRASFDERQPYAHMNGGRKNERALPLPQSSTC
# FAK = FAK (Homo sapiens, UniProt Q05397); assay: Z`-LYTE kinase inhibitory assay, FAK
# recombinant human TOP1 = target: T3, recombinant human TOP1 (Homo sapiens, UniProt P11387); assay: Topoisomerase I-mediated DNA cleavage assay; conditions: tested at 0.1, 1, 10, 100 µM
# T3 sequence (P11387 1-765): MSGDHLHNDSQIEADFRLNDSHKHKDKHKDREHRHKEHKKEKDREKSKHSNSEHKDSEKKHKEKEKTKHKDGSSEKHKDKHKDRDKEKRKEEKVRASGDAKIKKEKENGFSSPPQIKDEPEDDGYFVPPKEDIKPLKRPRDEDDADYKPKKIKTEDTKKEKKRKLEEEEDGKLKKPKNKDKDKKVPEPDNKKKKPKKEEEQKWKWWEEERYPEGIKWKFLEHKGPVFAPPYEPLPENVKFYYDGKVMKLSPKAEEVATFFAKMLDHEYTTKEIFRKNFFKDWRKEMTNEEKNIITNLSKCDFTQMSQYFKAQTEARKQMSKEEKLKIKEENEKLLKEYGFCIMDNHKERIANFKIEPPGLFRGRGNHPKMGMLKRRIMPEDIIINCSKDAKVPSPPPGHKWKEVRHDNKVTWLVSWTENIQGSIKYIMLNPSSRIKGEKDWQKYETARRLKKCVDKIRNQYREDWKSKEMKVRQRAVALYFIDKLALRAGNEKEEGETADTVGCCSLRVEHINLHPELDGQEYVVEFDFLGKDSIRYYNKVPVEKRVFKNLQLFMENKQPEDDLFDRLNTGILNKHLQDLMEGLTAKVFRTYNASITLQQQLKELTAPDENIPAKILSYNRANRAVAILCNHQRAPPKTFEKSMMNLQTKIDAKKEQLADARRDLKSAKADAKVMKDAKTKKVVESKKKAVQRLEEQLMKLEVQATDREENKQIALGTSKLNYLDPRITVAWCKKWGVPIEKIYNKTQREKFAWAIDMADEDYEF
# Procedure: Radiolabeled DNA was incubated with recombinant human TOP1 in 20 µL reaction buffer (10 mmol/L Tris-HCl, pH 7.5, 50 mmol/L KCl, 5 mmol/L MgCl2, 0.1 mmol/L EDTA, and 15 µg/mL BSA) at 30 °C for 20 min in the presence of the indicated drug concentrations. Reactions were terminated by adding SDS (0.5% final concentration) followed by the addition of two volumes of loading dye (80% formamide, 10 mmol/L sodium hydroxide, 1 mmol/L sodium EDTA, 0.1% xylene cyanol, and 0.1% bromophenol blue). Aliquots of reaction mixtures were subjected to 20% denaturing PAGE. Gels were dried and visualised by using PhosphorImager and Image Quant software (Molecular Dynamics).
# FRK = target: T4, FRK (Homo sapiens, UniProt P42685); assay: Z`-LYTE kinase profiling, FRK; type: biochemical
# T4 construct: purchased Invitrogen/Life Technologies
# T4 sequence (P42685 whole entry): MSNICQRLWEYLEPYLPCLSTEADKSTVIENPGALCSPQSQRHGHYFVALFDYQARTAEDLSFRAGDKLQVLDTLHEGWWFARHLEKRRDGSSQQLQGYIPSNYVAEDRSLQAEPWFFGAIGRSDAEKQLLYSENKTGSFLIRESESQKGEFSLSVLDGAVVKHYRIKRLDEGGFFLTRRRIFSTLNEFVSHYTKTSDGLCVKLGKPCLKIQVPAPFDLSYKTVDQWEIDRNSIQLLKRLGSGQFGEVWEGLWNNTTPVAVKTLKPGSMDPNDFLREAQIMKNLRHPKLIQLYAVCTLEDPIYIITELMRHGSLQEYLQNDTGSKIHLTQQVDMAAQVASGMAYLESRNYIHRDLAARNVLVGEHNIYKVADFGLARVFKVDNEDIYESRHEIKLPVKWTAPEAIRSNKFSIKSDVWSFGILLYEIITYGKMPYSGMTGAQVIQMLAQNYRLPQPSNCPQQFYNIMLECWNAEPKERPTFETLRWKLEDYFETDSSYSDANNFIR
# BTK = target: T5, BTK (Homo sapiens, UniProt Q06187); assay: Z`-LYTE kinase profiling, BTK; type: biochemical
# T5 construct: purchased Invitrogen/Life Technologies
# T5 sequence (Q06187 whole entry): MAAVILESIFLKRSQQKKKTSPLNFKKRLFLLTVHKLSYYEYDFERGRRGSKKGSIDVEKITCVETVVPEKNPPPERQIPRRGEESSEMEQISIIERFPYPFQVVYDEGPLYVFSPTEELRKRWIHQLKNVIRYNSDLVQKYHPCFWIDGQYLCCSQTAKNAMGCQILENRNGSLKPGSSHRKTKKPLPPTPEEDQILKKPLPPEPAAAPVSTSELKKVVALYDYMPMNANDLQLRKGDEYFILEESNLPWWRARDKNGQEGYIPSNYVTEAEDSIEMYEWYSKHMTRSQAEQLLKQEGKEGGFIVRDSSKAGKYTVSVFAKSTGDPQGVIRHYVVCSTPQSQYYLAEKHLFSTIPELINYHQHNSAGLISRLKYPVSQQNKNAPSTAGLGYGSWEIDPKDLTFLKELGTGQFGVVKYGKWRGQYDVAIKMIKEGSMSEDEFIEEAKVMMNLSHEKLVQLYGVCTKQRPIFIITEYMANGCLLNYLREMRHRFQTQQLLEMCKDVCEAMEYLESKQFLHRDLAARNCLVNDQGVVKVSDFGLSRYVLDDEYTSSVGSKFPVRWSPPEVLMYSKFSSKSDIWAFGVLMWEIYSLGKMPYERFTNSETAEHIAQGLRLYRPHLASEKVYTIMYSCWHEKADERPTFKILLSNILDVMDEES
# [2] = system: MDMBA-231 breast cancer cell line; assay: MTT antiproliferative assay, MDMBA-231; type: cell-based; conditions: 10 µM, 24 h
# Procedure: as §1
# [3] = system: DLD-1 colorectal cancer cell line; assay: MTT antiproliferative assay, DLD-1; conditions: for GI% DLD1: 10 µM, 24 h, MTT; for IC50: Homo sapiens, DLD-1, 24 h, read-out: IC50 DLD1 (half maximal growth inhibitory concentration)
# Procedure: (§2) After the incubation of the tested compounds for 24 h, the percent growth inhibition (GI%) was calculated.
# (§3) Cells were seeded at 1 × 10^4 cells/well and cultured overnight in a 96-well plate. […] Then, 150 µl DMSO was used to solubilise MTT formazan crystals. Finally, the plates were shaken, and the optical density was determined at 570 nm using ELISA plate reader. At least, three independent experiments were performed. Percentage of growth inhibition was determined as (1-[OD of treated cells/OD of control cells]). […] The IC50 values were calculated using Prism v0.8 software (GraphPad Software Inc., La Jolla, CA).
# [4] = system: MCF-7 breast cancer cell line; assay: MTT antiproliferative assay, MCF-7; type: cell-based; conditions: 10 µM, 24 h
# Procedure: as §1
# VEGFR-1 = target: T6, VEGFR-1 (Homo sapiens, UniProt P17948); assay: Z`-LYTE kinase profiling, VEGFR-1; type: biochemical
# T6 construct: purchased Invitrogen/Life Technologies
# T6 sequence (P17948 27-1338): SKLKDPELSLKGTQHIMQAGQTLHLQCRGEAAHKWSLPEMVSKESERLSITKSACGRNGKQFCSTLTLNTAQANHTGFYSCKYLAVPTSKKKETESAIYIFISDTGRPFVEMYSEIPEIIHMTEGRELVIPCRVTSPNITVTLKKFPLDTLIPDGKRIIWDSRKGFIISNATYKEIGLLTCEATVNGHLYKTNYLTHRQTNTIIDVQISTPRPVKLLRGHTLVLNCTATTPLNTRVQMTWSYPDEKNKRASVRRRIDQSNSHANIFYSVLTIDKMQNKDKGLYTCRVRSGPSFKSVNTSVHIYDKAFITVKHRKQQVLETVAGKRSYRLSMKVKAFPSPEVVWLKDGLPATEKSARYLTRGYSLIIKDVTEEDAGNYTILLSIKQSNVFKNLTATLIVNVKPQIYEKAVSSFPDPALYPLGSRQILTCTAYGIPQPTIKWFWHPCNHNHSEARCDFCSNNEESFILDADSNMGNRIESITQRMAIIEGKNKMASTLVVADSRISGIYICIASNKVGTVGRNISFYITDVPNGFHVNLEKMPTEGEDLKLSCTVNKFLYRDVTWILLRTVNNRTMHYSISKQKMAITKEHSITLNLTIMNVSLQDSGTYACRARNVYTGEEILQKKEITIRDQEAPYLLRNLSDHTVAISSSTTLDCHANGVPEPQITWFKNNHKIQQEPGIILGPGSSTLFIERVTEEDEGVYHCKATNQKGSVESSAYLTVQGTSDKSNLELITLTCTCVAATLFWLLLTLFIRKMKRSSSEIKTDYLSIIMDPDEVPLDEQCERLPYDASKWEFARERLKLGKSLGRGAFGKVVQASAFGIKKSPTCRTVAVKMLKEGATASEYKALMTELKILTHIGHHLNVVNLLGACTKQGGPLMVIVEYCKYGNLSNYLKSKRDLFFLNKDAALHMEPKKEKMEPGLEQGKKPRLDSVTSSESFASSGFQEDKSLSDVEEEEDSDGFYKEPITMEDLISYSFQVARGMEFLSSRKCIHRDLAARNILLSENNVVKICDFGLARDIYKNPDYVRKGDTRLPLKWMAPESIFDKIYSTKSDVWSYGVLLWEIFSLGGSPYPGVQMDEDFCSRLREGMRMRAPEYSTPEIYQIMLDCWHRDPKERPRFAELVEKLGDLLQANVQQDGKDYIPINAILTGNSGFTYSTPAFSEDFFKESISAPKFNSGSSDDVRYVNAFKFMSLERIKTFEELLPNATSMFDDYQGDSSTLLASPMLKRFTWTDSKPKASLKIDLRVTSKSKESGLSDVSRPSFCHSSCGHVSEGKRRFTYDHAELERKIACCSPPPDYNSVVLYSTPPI
# [5] = system: HCT-116 colorectal cancer cell line; assay: MTT antiproliferative assay, HCT-116; conditions: for GI% HCT-116: 10 µM, 24 h, MTT; for IC50: Homo sapiens, HCT-116, 24 h, read-out: IC50 HCT-116 (half maximal growth inhibitory concentration)
# Procedure: as §2, §3
# VEGFR-2 = target: T7, VEGFR-2 (Homo sapiens, UniProt P35968); assay: Z`-LYTE kinase profiling, VEGFR-2; type: biochemical
# T7 construct: purchased Invitrogen/Life Technologies
# HER-2 = target: T8, HER-2 (Homo sapiens, UniProt P04626); assay: Z`-LYTE kinase profiling, HER-2; type: biochemical
# T8 construct: purchased Invitrogen/Life Technologies
# T1 sequence (P12931 whole entry): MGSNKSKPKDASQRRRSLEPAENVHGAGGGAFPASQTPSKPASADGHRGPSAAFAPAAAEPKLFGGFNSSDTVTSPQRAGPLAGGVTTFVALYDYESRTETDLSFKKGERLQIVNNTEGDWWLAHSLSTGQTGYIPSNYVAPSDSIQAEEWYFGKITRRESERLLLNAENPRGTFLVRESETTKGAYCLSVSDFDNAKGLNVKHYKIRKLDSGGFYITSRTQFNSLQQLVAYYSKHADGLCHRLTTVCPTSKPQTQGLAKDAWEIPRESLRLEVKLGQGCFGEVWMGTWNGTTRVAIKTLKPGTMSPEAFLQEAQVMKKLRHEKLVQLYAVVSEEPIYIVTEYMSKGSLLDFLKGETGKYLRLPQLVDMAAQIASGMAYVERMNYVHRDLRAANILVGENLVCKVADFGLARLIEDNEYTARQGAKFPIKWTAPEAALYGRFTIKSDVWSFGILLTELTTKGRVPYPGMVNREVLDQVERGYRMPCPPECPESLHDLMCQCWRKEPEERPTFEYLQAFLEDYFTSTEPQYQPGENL
SMILES,IC50 (c-Src) [nM],melting point [°C],GI% Hela [1] [%],IC50 (EGFR) [nM],"fold decreased activity than Gefitinib, EGFR (EGFR) [fold]",IC50 (IGF-1R) [nM],IC50 (FAK) [nM],TOP1 inhibitory activity (semiquantitative score relative to 1 µM CPT) (recombinant human TOP1),IC50 (FRK) [nM],IC50 (BTK) [nM],GI% MDMBA-231 [2] [%],GI% DLD1 [3] [%],IC50 [3] [nM],GI% MCF-7 [4] [%],IC50 (VEGFR-1) [nM],GI% HCT-116 [5] [%],IC50 [5] [nM],IC50 (VEGFR-2) [nM],IC50 (HER-2) [nM]
"Clc1ccc(-c2cc(OCCCN3CCOCC3)c3cc4c(cc3n2)OCO4)cc1 [12b, 6-(4-chlorophenyl)-8-(3-morpholinopropoxy)-[1,3]dioxolo [4,5-g]quinoline]",42.3,153 to 155,25.39,95.4 ± 2.05,2,7160,70.9 ± 3.16,−/+ (−/+: 0–25% 1 µM CPT),1130,213,14.28,72.95,8360 ± 1080,64.38,5990,31.28,14400 ± 3690,27,27.3
"COc1cc2nc(-c3ccc(-c4cccs4)cc3)cc(OCCCN3CCN(C)CC3)c2cc1OC [8b, 6,7-dimethoxy-4–(3-(4-methylpiperazin-1-yl)propoxy)-2–(4-(thiophen-2-yl)phenyl)quinol-ine]",7200,155 to 157,50.81,35.5 ± 1.5,,3900,29.8 ± 2.37,0,3920,2920,36.87,74.25,7340 ± 1220,74.90,6960,52.10,9840 ± 680,8370,1070
"COc1cc2nc(-c3ccc(C)cc3)cc(OCCCNC3CCN(C)CC3)c2cc1OC [6m, N-(3-((6,7-dimethoxy-2-(p-tolyl)quinolin-4-yl)oxy)propyl)-1-methylpiperidin-4-amine]",980,66 to 68,30.19,154 ± 12.8,,2810,172 ± 13.7,−/+ (−/+: 0–25% 1 µM CPT),2760,2460,8.16,22.16,54200 ± 2110,22.09,865,24.31,43100 ± 1050,2830,332
"FC(F)(F)c1ccc(-c2cc(OCCCN3CCOCC3)c3cc4c(cc3n2)OCO4)cc1 [12d, 8-(3-morpholinopropoxy)-6-(4-(trifluoromethyl)phenyl)-[1,3]dioxolo[4,5-g]quinoline]",1450,138 to 140,36.67,450.2 ± 4.25,,453,273 ± 2.84,0,6530,653,9.36,22.58,74900 ± 5460,26.54,2540,54.37,9200 ± 2490,855,897
"COc1cc2nc(-c3ccc(-c4ccco4)cc3)cc(OCCCN3CCN(C)CC3)c2cc1OC [8a, 2-(4-(furan-2-yl)phenyl)-6,7-dimethoxy-4-(3-(4-methylpiperazin-1-yl)propoxy)quinoline]",4540,135 to 137,11.78,349 ± 14,,1060,198 ± 12.3,0,846,5600,4.40,5.15,> 100000,7.22,648,1.02,> 100000,6370,989
"Clc1ccc(-c2cc(OCCCn3ccnc3)c3cc4c(cc3n2)OCO4)cc1 [12a, 8-(3-(1H-imidazol-1-yl)propoxy)-6-(4-chlorophenyl)-[1,3] dioxolo[4,5-g]quinoline]",55.3,146 to 148,22.79,125 ± 7.94,,5370,225 ± 14,−/+ (−/+: 0–25% 1 µM CPT),734,196,4.98,21.25,> 100000,11.72,1760,16.25,> 100000,48.3,34.8
"COc1ccc(-c2ccc3nc(-c4ccc(F)cc4)cc(OCCCN4CCOCC4)c3c2)cc1 [20d, 4-(3-((2-(4-fluorophenyl)-6-(4-methoxyphenyl)quinolin-4-yl)oxy)propyl)morpholine]",251,168 to 170,11.97,147 ± 8.37,,41.2,125 ± 3.15,0,133,1780,27.05,24.65,65300 ± 5360,15.34,712,36.91,29500 ± 4150,294,1770
"COc1ccc(-c2ccc3nc(-c4ccc(F)cc4)cc(OCCCn4ccnc4)c3c2)cc1 [20c, 4-(3-(1H-imidazol-1-yl)propoxy)-2-(4-fluorophenyl)-6-(4-methoxyphenyl)quinoline]",9050,176 to 178,22.08,362 ± 5.26,,1880,91 ± 5.85,0,1440,8670,32.11,41.34,16000 ± 1100,76.82,1750,38.64,12500 ± 3050,8970,1230
"COc1cc2nc(-c3ccc(Cl)cc3)cc(OCCCNC3CCN(C)CC3)c2cc1OC [6c, N-(3-((2–(4-chlorophenyl)-6,7-dimethoxyquinolin-4-yl)oxy)propyl)-1-methylpiperidin-4-amine]",1500,124 to 126,4.96,85.7 ± 6.46,2,2030,45.7 ± 3.4,−/+ (−/+: 0–25% 1 µM CPT),1560,2250,19.38,28.22,47000 ± 2460,15.76,606,41.36,13700 ± 1290,405,1380
"COc1ccc(-c2ccc3nc(-c4ccc(Cl)cc4)cc(OCCCn4ccnc4)c3c2)cc1 [20a, 4-(3-(1H-imidazol-1-yl)propoxy)-2-(4-chlorophenyl)-6-(4-methoxyphenyl)quinoline]",2900,210 to 212,22.06,122 ± 9.4,,2860,77.3 ± 4.37,0,2620,8670,29.08,44.98,13000 ± 3690,15.23,1350,36.71,24100 ± 2460,1250,1010
